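A five-concentration, 48-hour dose response in 96-well plates underlies each endpoint, interpolated linearly between surrounding concentrations. GI50 is the concentration that inhibits growth by half.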 The source made the active and inactive calls. Rule as the data show it: active = GI50 up to about 1.1 µM and inactive = higher.
Assays:
Experiment in all cases: DTP human tumour cell line panel, 48 h
A498 = tested on: A498
NCI-H226 = tested on: NCI-H226
LOX IMVI = tested on: LOX IMVI
DMS-273 = tested on: DMS-273
DLD-1 = tested on: DLD-1
UO-31 = tested on: UO-31
NCI/ADR-RES = tested on: NCI/ADR-RES
EKVX = tested on: EKVX
HCC 2998 = tested on: HCC 2998
MOLT-4 = tested on: MOLT-4
MCF7 = tested on: MCF7
SR = tested on: SR

Measured: GI50

COc1nc(SC)nc2c1cnn2C1OC(C(O)CO)C(OC)C1O (configuration not stated)
inactive: A498 > 100 µM | NCI-H226 > 100 µM | LOX IMVI > 100 µM | DMS-273 > 100 µM | DLD-1 > 100 µM | UO-31 34.9 µM | NCI/ADR-RES > 100 µM | EKVX > 100 µM | HCC 2998 > 100 µM | MOLT-4 14 µM | MCF7 > 62.4 µM

COc1c(Br)cc(CC(N)=O)c(O)c1Br
inactive: A498 > 100 µM | NCI-H226 > 100 µM | LOX IMVI > 100 µM | DMS-273 > 100 µM | DLD-1 > 100 µM | UO-31 > 100 µM | EKVX > 100 µM | HCC 2998 > 100 µM | MOLT-4 > 100 µM | SR > 100 µM

CN(C)C(=S)/N=c1\ssc(=S)n1C
inactive: A498 > 100 µM | NCI-H226 > 100 µM | DMS-273 > 100 µM | DLD-1 > 100 µM | UO-31 > 100 µM | EKVX > 100 µM | HCC 2998 > 100 µM | MOLT-4 > 100 µM | SR > 100 µM

CN(C)CCNC(=O)c1cccc2ccc(-c3ccc(F)cc3)nc12
inactive: A498 7.1 µM | NCI-H226 3.53 µM | LOX IMVI 3.32 µM | DMS-273 2.82 µM | DLD-1 3.64 µM | UO-31 2.61 µM | NCI/ADR-RES 3.18 µM | HCC 2998 6.46 µM | MOLT-4 1.94 µM | MCF7 3.56 µM

N#C/N=N/c1cc(Cl)c(/N=N/C#N)cc1Cl
inactive: A498 > 100 µM | NCI-H226 > 100 µM | LOX IMVI 38.6 µM | DMS-273 > 100 µM | DLD-1 > 100 µM | EKVX > 100 µM | HCC 2998 > 100 µM | MOLT-4 40.9 µM | SR 34.8 µM

C[N+](C)([O-])CCOc1cc2c(c3ccccc13)-c1ccccc1C2=O
inactive: A498 20.3 µM | NCI-H226 15.7 µM | LOX IMVI 4.31 µM | DMS-273 16.3 µM | DLD-1 17 µM | UO-31 17.8 µM | NCI/ADR-RES 14.3 µM | EKVX 25.9 µM | HCC 2998 13.7 µM | MOLT-4 3.46 µM | MCF7 11.7 µM

O=[N+]([O-])c1ccc2[nH]c3c(-c4ccccc4)nccc3c2c1
inactive: A498 82.6 µM | NCI-H226 9.75 µM | LOX IMVI 16.9 µM | DMS-273 11.9 µM | DLD-1 3.73 µM | UO-31 4.41 µM | NCI/ADR-RES 16 µM | EKVX 21.1 µM | HCC 2998 19.5 µM | MOLT-4 2.31 µM | MCF7 24.8 µM

O=C(NN1C(=O)CS(=O)(=O)C1c1ccc(Cl)c(Cl)c1)c1ccncc1 (configuration not stated)
inactive: A498 > 90.4 µM | NCI-H226 > 100 µM | LOX IMVI > 95.9 µM | DMS-273 > 31.6 µM | DLD-1 > 100 µM | UO-31 > 100 µM | NCI/ADR-RES > 92.7 µM | EKVX > 74 µM | HCC 2998 > 100 µM | MOLT-4 > 40.3 µM | MCF7 98.2 µM

Reference: ChEMBL document CHEMBL1201862, “PubChem BioAssay data set” (2004)
